Assay results: PMC11895359 (Alzheimer's Research & Therapy, 2025)
Where “and” joins values, the source holds several entries; their conditions need not be identical. Equal entries are not always repeated. Where two headings read alike, the source gives them in different places.

What was measured:
[1] = system: muscle regeneration; details: aged mouse models; cited from earlier work
[2] = system: CSF pTau231; assay: Change in CSF pTau231 in NEAT trial participants; format: in vivo, human; design: PTAU231 Month 12, individual participant / PTAU231 change, individual participant: unit not given here
Description: (§1) We also measured the within-participant association between analytes. […] All bar graphs show mean and standard errors.

[3] = system: Aβ42; assay: Change in CSF Aβ42 in NEAT trial participants; format: in vivo, human; details: mean ± S.E.
Description: as §1

[4] = system: total tau/ Aβ42; assay: Change in CSF total tau/Aβ42 ratio in NEAT trial participants; format: in vivo, human; details: mean ± S.E.
Description: as §1

[5] = system: mouse models of Alzheimer’s disease; details: mouse models of AD; cited from earlier work
[6] = LC/MS measurement of plasma nicotinamide and metabolites in NEAT trial participants
Description: The NEAT trial participants were recruited at UCLA and UC Irvine and were required to meet eligibility criteria that included clinical criteria for mild cognitive impairment or mild dementia due to AD, confirmed by a CSF biomarker (CSF amyloid beta 42 (Aβ42) ≤ 200 pg/mL or a ratio of total tau to Aβ42 ≥ 0.39) [9]. […] Blood was collected from all participants at 0, 6, and 12 months after overnight fasting and plasma rapidly obtained. CSF samples were collected at 0 and 12 months. Plasma and CSF samples were stored at −80 °C until further processing. All samples were included in analysis, with an interval from last dose of drug or placebo ranging from 6 to 432 h.
Each calibration dilution contained IS at a constant concentration of 1 μM. IS was also added to each patient sample to a final concentration of 0.5 μM. All solutions and QC samples were stored at −20 °C. The lower limit of quantification for each analyte was determined by finding the lowest calibration curve concentration that could both be distinguished with 95% confidence from blank readings and have a signal-to-noise ratio greater than 8 to 1 [10].
Protein was precipitated by adding 160 μL of −20 °C 99.7% acetonitrile-0.3% formic acid to the IS-sample mix. Samples were centrifuged for 20 min at 4 °C at 17,000 g. 40 μL of the supernatant was then diluted fivefold with 200 μL of 0.3% formic acid in an autosampler well plate (Waters186002643). All plasma and CSF analytes were determined simultaneously for groups of 4–20 participants from the 46 participants without knowledge of their treatment assignment.
Samples were analyzed on a Waters Acquity UPLC Quattro Premier mass spectrometer in triple quadrupole electrospray positive (ESI +) mode with an Acquity CSH™ Fluoro-Phenyl (2.1 × 50 mm, 1.7 μm) column. For liquid chromatography separation, we modified the method of Chu et al. (2021). We used 0.3% formic acid in water as the mobile A phase, and 99.7% acetonitrile/0.3% formic acid as the mobile B phase. The injection volume was 10 μL in triplicate. The sample elution gradient was programmed as 0 – 0.5 min. in 100% A; 0.5–2.5 min, linear to 95% B; re-equilibrated from 2.5–4.5 min. in 100% A. The flow rate was 0.3 mL/min, and column temperature was 50 °C.
Microsoft Excel (Version 16.82, Microsoft, Redmond, WA, USA) was used for data management and statistical analysis. Treatment allocation was unblinded after all sample analyte levels were completed by mass spectrometry. We compared the randomized placebo and treatment groups for main analyte effects by two-tailed unpaired Student’s T Tests, with significance at p < 0.05, without adjustment for multiple comparisons in this exploratory analysis. […] We also measured the within-participant association between analytes. […] All bar graphs show mean and standard errors.

[7] = system: pTau181; assay: Change in CSF pTau181 in NEAT trial participants; format: in vivo, human; details: CSF nicotinamide elevated, n = 6, 12 months, mean ± S.E.
Description: as §1

[8] = system: Aβ42/40; assay: Change in CSF Aβ42/40 ratio in NEAT trial participants; format: in vivo, human; details: mean ± S.E.
Description: as §1

[9] = phase 2a trial, high-dose oral nicotinamide, early AD; cited from earlier work
[10] = cited from earlier work
[11] = system: Aβ40; assay: Change in CSF Aβ40 in NEAT trial participants; format: in vivo, human; details: mean ± S.E.
Description: as §1

[12] = system: total tau; assay: Change in CSF total tau in NEAT trial participants; format: in vivo, human; details: mean ± S.E.
Description: as §1

[13] = LC/MS measurement of CSF nicotinamide and metabolites in NEAT trial participants; details: obtained simultaneously with nicotinamide by LC/MS
Protocol: CSF samples were collected at 0 and 12 months.
The injection volume was 10 μL in triplicate.
as §1

[14] = CSF nicotinamide elevated, n = 6, 12 months
[15] = n = 10, ± S.D., ref Clement et al. 14
[16] = n = 100, ± S.D., ref Seyedsadjadi et al. 15

## C[n+]1cccc2c(N)cccc21 [5-amino-1-methylquinoline]
[1]
  Muscle regeneration: improve muscle regeneration

## NC(=O)c1cccnc1 [Nicotinamide]
[2]; TX 1500mg
  PTAU231 Month 12, individual participant: 34.3 and 98.8 and 66 and 31.3 and 12.2 and 14.6 and 15.1 and 68.8 and 21.2 and 10.9 and 29 and 49.5 and 6.6 and 52.5 and 20.1 and 65.3 and 41 and 6.2 and 37
[2]; TX 1500mg, Month 12 minus baseline
  PTAU231 change, individual participant: -12 and 24 and -20 and -24.5 and -2.9 and -10.4 and -17.7 and 29.5 and -11.6 and 3.1 and 7.6 and 1.5 and -0.3 and -15 and -25.2 and -8.5 and -1.5 and -5.3
[2]; TX 1500mg, Month 12 vs baseline
  PTAU231 % change, individual participant: -26% and 32% and -23% and -44% and -19% and -42% and -54% and 75% and -35% and 40% and 36% and 3% and -4% and -22% and -1% and -28% and -17% and -13%
[2]; all treated participants, 12 months
  Percent Change in pTau231: -9%
[2]; six treated participants with elevated CSF nicotinamide, 12 months
  Decrease of pTau231 from baseline: 34%
[2]; treated, CSF nicotinamide elevated (six participants), 12 months
  Percent Change in pTau231: -34%
[2]; treated, CSF nicotinamide unelevated group, 12 months
  Increase of pTau231 from baseline: 3%
[2]; treated, CSF nicotinamide unelevated, 12 months
  Percent Change in pTau231: 3%
[2]; treated, plasma nicotinamide elevated, 12 months
  Percent Change in pTau231: -4%
[2]; treated, plasma nicotinamide unelevated, 12 months
  Percent Change in pTau231: -15%
[3]; [14]
  Change in Aβ42: -75 ± 44 pg/mL
[3]; all treated, n = 19, 12 months
  Change in Aβ42: -127 ± 38 pg/mL
[4]; [14]
  Change in total tau/ Aβ42: 35 ± 15%
[4]; all treated, n = 19, 12 months
  Change in total tau/ Aβ42: 41 ± 7%
[5]
  Cognitive function: improved cognitive function
[6]; 12 months, n = 14 of 23
  Percent of treated participants with elevated plasma nicotinamide: 61%
[6]; human, plasma, oral, 1500 mg, Mean plasma nicotinamide, drug elevated subgroup, treated, plasma nicotinamide > […], 12 months
  concentration at 12 months: 86 µM
[6]; human, plasma, oral, 1500 mg, Mean plasma nicotinamide, drug unelevated subgroup, treated, plasma nicotinamide ≤ […], 12 months
  concentration at 12 months: 0.7 µM
[6]; human, plasma, oral, 1500 mg, Plasma nicotinamide, one participant, treated, sample 27 h after last dose
  concentration at 27 h: 2 µM
[6]; human, plasma, po, 1500 mg, Mean plasma nicotinamide, nicotinamide-treated participants, 1500 mg PO BID, 6 months
  concentration at 6 months: 73 µM
[6]; human, plasma, po, 1500 mg, Mean plasma nicotinamide, nicotinamide-treated participants, 1500 mg PO BID, 12 months
  concentration at 12 months: 52 µM
[7]
  Change in pTau181: 1.1 ± 14 pg/mL
[8]; [14]
  Change in Aβ42/40: −2.1 ± 4%
[8]; all treated, n = 19, 12 months
  Change in Aβ42/40: −3.7 ± 1.7%
[9]
  Safety and tolerability: good safety and tolerability
[10]; [15]
  Plasma analyte concentration: 38 ± 11 µM
[10]; n = 54, ± S.D., ref Ibrahim et al. 13
  Plasma analyte concentration: 1.2 ± 0.14 µM
[10]; [16]
  Plasma analyte concentration: 32 ± 11 µM
[10]; n = 659, ± S.D., ref Chu et al. 12
  Plasma analyte concentration: 0.9 ± 0.02 µM
[11]; [14]
  Change in Aβ40: -1823 ± 1094 pg/mL
[11]; all treated, n = 19, 12 months
  Change in Aβ40: -2307 ± 593 pg/mL
[12]; [14]
  Change in total tau: -35 ± 84 pg/mL
[12]; all treated, n = 19, 12 months
  Change in total tau: -8.6 ± 54 pg/mL

## NC(=O)c1ccc[n+]([C@@H]2O[C@H](COP(=O)([O-])OP(=O)(O)OC[C@H]3O[C@@H](n4cnc5c(N)ncnc54)[C@H](O)[C@@H]3O)[C@@H](O)[C@H]2O)c1 [NAD^+, Nicotinamide Adenine Dinucleotide]
[6]; human, plasma, Plasma analyte concentration, this work baseline, baseline before treatment, n = 47, ± S.D.
  concentration at 0 months: < 1.2 µM
[6]; obtained simultaneously with nicotinamide by LC/MS
  Plasma measure: below our limits of detection
[6]; this work
  Plasma NAD+ (not measurable above): < 1.2 nM
[13]
  CSF measure: below our limits of detection
[10]; [15]
  Plasma analyte concentration: 0.008 ± 0.02 µM
[10]; [16]
  Plasma analyte concentration: 0.023 ± 0.012 µM
